Experimental data published in patent publication US11801235B2, “Methods and compositions for delivery of biotin to mitochondria” (priority 2020, dated 2023).
Peptide text beside a SMILES is read from it. * marks the point of attachment. Biotin = O=C1N[C@H]2[C@H](CS[C@H]2CCCCC(=O)*)N1

Legend:
ARPE-19 cells [1] = assay: In vitro scratch assay (scratch area); format: cell-based, human
Text: (§1) Certain exemplary peptide-conjugated biotin molecules can accelerate wound healing in cell cultures. The in vitro scratch assay is an easy and well-developed method to measure cell proliferation and migration over a “wound area” in vitro. This assay involves creating a “scratch” in a cell monolayer with a pipette tip and then examining the rate at which cells proliferate and migrate to close the scratch.
(§2) The scratch area was examined immediately (day 0) using a Nikon Eclipse Ti2 fluorescence microscope. Six different field were captured for each sample using 4×objective. The scratch area (cell-free zone) was calculated using ImageJ software, an open-source Java image processing program inspired by NIH Image (National Institute of Health). The scratch area was re-examined after 24 hours (day 1), and the area was normalized to the area determined on day 0 for the same sample. All results were calculated as change from no-treatment control and averaged for the six fields.

[2] = system: Human retinal pigment epithelial cells (ARPE-19); assay: Mitochondrial potential (TMRM/MitoView Green) after serum starvation; format: cell-based; details: ARPE-19 cells, 3 days of serum starvation, then 1 uM for 2 hours
Protocol: ARPE-19 cells were seeded in 35 mm glass plates at an initial density of 5×10^4 cells. […] Cells were then incubated in serum-free DMEM/F12 alone (control group) or DMEM/F12 containing 1 uM of SPN12 or SPN15 for 2 hours.
To determine mitochondrial potential, live cells were incubated with 5 nM tetramethylrhodamine methyl ester (TMRM, #70017, Biotium, Fremont, CA) in DMEM without phenol red. TMRM is a potential-dependent fluorescent dye (Ex/Em=548/573). TMRM accumulates in negatively charged polarized mitochondria and can be detected as red fluorescence. Total mitochondria were imaged with a mitochondrial potential-independent fluorescent dye (100 nM MitoView Green; Ex/Em=490/523; #70054, Biotium, Fremont CA). Hoechst 33342 (10 ug/ml, Novus Biologicals, Centennial, CO) was added to stain nuclei. Live cells were covered with phosphate buffer and imaged using the Nikon Eclipse Ti fluorescent microscopy using the 60×water objective.

HK-2 cells [3] = assay: Mitochondrial potential (TMRM) of cells at the scratch edge; format: cell-based, human; details: 10 nM, serum-free, 24 hours after scratch
Text: Rapidly dividing cells can need ATP to support the synthesis of important building blocks. Tissue injury can cause rapid mitochondrial depolarization that compromises ATP production and/or results in cell death. The loss of ATP can further impair cell proliferation and/or tissue repair. Mitochondrial potential can be monitored in the cells at the edge of the scratch area using the cell-permeable potential-dependent dye TMRM (tetramethylrhodamine methyl ester). TMRM can accumulate in negatively charged polarized mitochondria and can be detected as red fluorescence. To mimic the microenvironment of wounds in vitro, serum-free medium was used in the scratch assay. […] HK-2 cells were then incubated with 5 nM TMRM in DMEM without phenol red and incubated for 30 min. Cells were then covered with live cell image buffer and imaged using Nikon Eclipse Ti2 fluorescent microscope (20× objective).

ARPE-19 cells [4] = assay: Cell number and viability after 30 days of serum deprivation; format: cell-based, human; details: 10 nM
Protocol: (§3) Cell viability was measured using the Alamar Blue Cell Proliferation Assay (Bio-Rad), according to manufacturer's protocol. Alamar Blue uses resazurin to measure reducing power of living cells. The weakly fluorescent resazurin is reduced to the highly fluorescent resorufin when reduced by cellular metabolism. Briefly, alamar blue reagent (10 ul) was added to the culture medium and incubated for 1 h at 37° C. Fluorescence from resorufin (Ex/Em 530/590 nm) was detected using a microplate reader (SpectraMax iD3, Molecular Devices).
In the second model, ARPE-19 cells were grown in serum-free DMEM in the absence or presence of peptide-conjugated biotin molecules for 30 days. Serum-free media was supplemented with 10 nM of SPN12, SPN15 or SPN16 compounds (all at 10 nM) was replaced every 3 days. Culture medium was replaced every 3 days.

HK-2 cells [5] = assay: In vitro scratch assay (scratch area); format: cell-based, human; details: 10 nM
Protocol: as §1
3×10^5 cells were plated per well in 6-well plates in DMEM at 37° C. in a humidified incubator with 5% CO2 for one day prior to the experiment. To mimic the microenvironment of wounds in vitro, serum-free medium was used in the scratch assay. On the day of the scratch assay, the medium was replaced with serum-free DMEM, and a line scraped across the cell monolayer using a p1000 pipette tip. Cells were washed to remove cell debris and replaced with DMEM alone (control), or DMEM containing 10 nM biotin or peptide-conjugated biotin molecules.
as §2

HK-2 cells [6] = assay: Cellular ATP in extreme starvation model (serum-free 5% DMEM in PBS, 3 days); format: cell-based, human; details: 10 nM
Protocol: ATP was measured using the ApoSENSOR ATP Bioluminescence Assay Kit (BioVision) according to manufacturer's protocol. This kit utilizes luciferase to catalyze the formation of light from ATP and luciferin. Briefly, cells were treated with 100 ul of Nuclear Releasing Buffer for 5 min at RT with gentle shaking. 10 ul of ATP Monitoring Enzyme was added to cell lysate, and luminescence was measured using a microplate reader (SpectraMax iD3, Molecular Device). ATP levels were normalized to the serum-free DMEM control group (arbitrarily set to 1.0).
The second model uses an extreme starvation model whereby HK-2 cells were cultured in 96-well plates in serum-free 5% DMEM in PBS (phosphate-buffered saline) for 3 days. Cells were treated with 10 nM free biotin or peptide-conjugated biotin molecules. All treatments were carried out with N=6 in each experiment.

[7] = system: ARPE-19 human retinal pigment epithelial cell monolayers; assay: Cell proliferation at scratch edge (PCNA staining); format: cell-based; details: ARPE-19 cells, 10 nM, serum-free, 24 hours after scratch
Text: (§4) Re-epithelialization of a wound area require proliferation of cells at the wound edge, which can be impaired in most wounds due to lack of blood flow to deliver nutrients and/or growth factor(s) that can be necessary for cell proliferation. Cell proliferation in the wound edge can be monitored by proliferating cell nuclear antigen (PCNA) staining. To mimic the microenvironment of wounds in vitro, serum-free medium was used for the scratch assay in cell cultures.
(§5) Proliferating cells were identified by immunostaining with antibody to proliferating cell nuclear antigen (PCNA) according to standard procedures as presented in IHC World. PCNA staining was performed using the same plate of cells after determination of scratch area. […] All cell nuclei stain blue with Hoechst, but nuclei of proliferating cells stain red. The number of proliferating cells per field was quantified by the intensity of red nuclear stain and normalized to intensity of blue nuclear stain (determined by Nikon NIS-Elements Imaging Software).

[8] = system: HK-2 human renal epithelial cell monolayers; assay: Cell proliferation at scratch edge (PCNA staining); format: cell-based; details: HK-2 cells, 10 nM, serum-free, 24 hours after scratch
Text: as §4, §5

HK-2 cells [9] = assay: Cell viability (Alamar Blue) after 11 days of serum starvation; format: cell-based, human; details: 10 nM, vs serum-free control
Protocol: In the first model, HK-2 cells were cultured in 96-well plates in serum-free DMEM alone or in serum-free DMEM containing 10 nM of SPN11 or SPN12 for 11 days. Culture medium was replaced every 3 days.
as §3

[10] = system: ARPE-19 human retinal pigment epithelial cells; assay: Mitochondrial localization: co-localization with cytochrome c oxidase subunit 4 (COX4); format: cell-based; details: ARPE-19 cells, 1 uM, 2 hours, serum-free DMEM/F12
Protocol: Cells were fixed with 4% PFA at RT for 10 min and then permeabilized with 0.1% Triton X-100 at RT for 10 min. Cells were blocked with 2% BSA (bovine serum albumin) at RT for 30 min, and then incubated with primary antibody for cytochrome c oxidase subunit 4 (COX4), a major protein complex expressed on the inner mitochondrial membrane. The rabbit polyclonal COX4 antibody (Invitrogen PAS-29992, Waltham, MA) was used at 1:500 dilution in 2% BSA at 4° C. overnight.

## N=C(N)NCCC[C@H](NC(=O)[C@H](Cc1c[nH]c2ccccc12)NC(=O)CCCC[C@@H]1SC[C@@H]2NC(=O)N[C@@H]21)C(=O)N[C@@H](Cc1c[nH]c2ccccc12)C(=O)N[C@@H](CCCCNC(=O)CCCC[C@@H]1SC[C@@H]2NC(=O)N[C@@H]21)C(N)=O [SPN12, D-Biotin-L-Trp-L-Arg-L-Trp-L-Lys(biotinyl)-NH2] (Biotin-WRWK(Biotin)-NH2)
ARPE-19 cells [1]
  wound healing (scratch closure), FIG. 18: accelerated wound healing
[2]
  mitochondrial potential (TMRM) and filamentous mitochondrial network, FIG. 14: restore mitochondrial potential in all cells
HK-2 cells [3]
  number of cells with good mitochondrial potential (TMRM) at scratch edge, images FIG. 24: increased the number of cells with good mitochondrial potential
HK-2 cells [3]; compared to control
  mitochondrial potential (red fluorescence) normalized to nuclear number, FIG. 25: significantly increased mitochondrial potential
ARPE-19 cells [4]; 30 days of serum deprivation
  cell viability after serum deprivation compared to control, FIG. 9: doubled
ARPE-19 cells [4]; 30 days serum-free
  cell number after prolonged serum deprivation, microscopic images FIG. 8: increased cell number
HK-2 cells [5]; serum-free DMEM, 24 hours after mechanical scratch
  scratch area after 24 hours, microscopic images FIG. 15: almost completely closed
HK-2 cells [5]; serum-free, 24 hours
  closure of the scratch area compared to control, FIG. 16 and FIG. 17: significantly accelerated the closure of the scratch area
  effectiveness in reducing scratch area compared to free biotin, FIG. 16 and FIG. 17: twice as effective
HK-2 cells [6]
  ATP content compared to free biotin under extreme starvation, FIG. 12: doubling
[7]
  number of proliferating (PCNA-positive) cells at the edge of the scratch, images FIG. 22: increased the number of proliferating cells
[8]; compared to control or biotin
  number of proliferating cells normalized to all nuclei, FIG. 21: doubled
[8]; compared to free biotin
  number of proliferating (PCNA-positive) cells at the edge of the scratch, images FIG. 20: increased the number of proliferating cells
HK-2 cells [9]
  improvement of cell viability in the absence of serum, FIG. 7: 35%
[10]
  co-localization of biotin staining with COX4 staining (inner mitochondrial membrane), FIG. 6: co-localization
